# The kinase profiling compilation of Christmann-Franck et al. (2016)
# Experiments:
# Assay in all cases: radiometric filter-binding kinase assay, Kinase HotSpot
# Settings in all cases: compound 0.5 µM; ATP 10 µM
# MKNK2 (human) = MKNK2 (human) (UniProt Q9HBH9)
# INSRR (human) = INSRR (human) (UniProt P14616)
# MAPKAPK5 (human) = MAPKAPK5 (human) (UniProt Q8IW41)
# GRK6 (human) = GRK6 (human) (UniProt P43250)
# CHUK (human) = CHUK (human) (UniProt O15111)
# CAMK1 (human) = CAMK1 (human) (UniProt Q14012)
# PAK4 (human) = PAK4 (human) (UniProt O96013)
# MET (human) = MET (human) (UniProt P08581)
# MAPK13 (human) = MAPK13 (human) (UniProt O15264)
# PAK3 (human) = PAK3 (human) (UniProt O75914)
# RPS6KB2 (human) = RPS6KB2 (human) (UniProt Q9UBS0)
# CDK5 CDK5R1 p25 (human) = CDK5 CDK5R1 p25 (human) (UniProt Q00535+Q15078)
# VRK1 (human) = VRK1 (human) (UniProt Q99986)
# SRPK1 (human) = SRPK1 (human) (UniProt Q96SB4)
# PAK1 (human) = PAK1 (human) (UniProt Q13153)
# ROCK2 (human) = ROCK2 (human) (UniProt O75116)
# FER (human) = FER (human) (UniProt P16591)
# CLK3 (human) = CLK3 (human) (UniProt P49761)
# CDC42BPA (human) = CDC42BPA (human) (UniProt Q5VT25)
# PAK2 (human) = PAK2 (human) (UniProt Q13177)
# WNK3 (human) = WNK3 (human) (UniProt Q9BYP7)
# MAPK9 (human) = MAPK9 (human) (UniProt P45984)
# EPHA2 (human) = EPHA2 (human) (UniProt P29317)
# MAP3K3 (human) = MAP3K3 (human) (UniProt Q99759)
# PRKX (human) = PRKX (human) (UniProt P51817)
# PRKCB2 (human) = PRKCB2 (human) (UniProt P05771)
# PDGFRB (human) = PDGFRB (human) (UniProt P09619)
# SYK (human) = SYK (human) (UniProt P43405)
# AKT3 (human) = AKT3 (human) (UniProt Q9Y243)
# PRKG2 (human) = PRKG2 (human) (UniProt Q13237)
# CDK9 CCNT1 (human) = CDK9 CCNT1 (human) (UniProt P50750+O60563)
# CSNK1G1 (human) = CSNK1G1 (human) (UniProt Q9HCP0)
# FGR (human) = FGR (human) (UniProt P09769)
# EPHA5 (human) = EPHA5 (human) (UniProt P54756)
# ADRBK2 (human) = ADRBK2 (human) (UniProt P35626)
# PRKCI (human) = PRKCI (human) (UniProt P41743)
# ALK (human) = ALK (human) (UniProt Q9UM73)
# IKBKB (human) = IKBKB (human) (UniProt O14920)
# TSSK2 (human) = TSSK2 (human) (UniProt Q96PF2)
# MAPK8 (human) = MAPK8 (human) (UniProt P45983)
# RPS6KA4 KD2 (human) = RPS6KA4 KD2 (human) (UniProt O75676)
# ROCK1 (human) = ROCK1 (human) (UniProt Q13464)
# Sequence of ROCK1 (human) (Q13464 whole entry, looked up): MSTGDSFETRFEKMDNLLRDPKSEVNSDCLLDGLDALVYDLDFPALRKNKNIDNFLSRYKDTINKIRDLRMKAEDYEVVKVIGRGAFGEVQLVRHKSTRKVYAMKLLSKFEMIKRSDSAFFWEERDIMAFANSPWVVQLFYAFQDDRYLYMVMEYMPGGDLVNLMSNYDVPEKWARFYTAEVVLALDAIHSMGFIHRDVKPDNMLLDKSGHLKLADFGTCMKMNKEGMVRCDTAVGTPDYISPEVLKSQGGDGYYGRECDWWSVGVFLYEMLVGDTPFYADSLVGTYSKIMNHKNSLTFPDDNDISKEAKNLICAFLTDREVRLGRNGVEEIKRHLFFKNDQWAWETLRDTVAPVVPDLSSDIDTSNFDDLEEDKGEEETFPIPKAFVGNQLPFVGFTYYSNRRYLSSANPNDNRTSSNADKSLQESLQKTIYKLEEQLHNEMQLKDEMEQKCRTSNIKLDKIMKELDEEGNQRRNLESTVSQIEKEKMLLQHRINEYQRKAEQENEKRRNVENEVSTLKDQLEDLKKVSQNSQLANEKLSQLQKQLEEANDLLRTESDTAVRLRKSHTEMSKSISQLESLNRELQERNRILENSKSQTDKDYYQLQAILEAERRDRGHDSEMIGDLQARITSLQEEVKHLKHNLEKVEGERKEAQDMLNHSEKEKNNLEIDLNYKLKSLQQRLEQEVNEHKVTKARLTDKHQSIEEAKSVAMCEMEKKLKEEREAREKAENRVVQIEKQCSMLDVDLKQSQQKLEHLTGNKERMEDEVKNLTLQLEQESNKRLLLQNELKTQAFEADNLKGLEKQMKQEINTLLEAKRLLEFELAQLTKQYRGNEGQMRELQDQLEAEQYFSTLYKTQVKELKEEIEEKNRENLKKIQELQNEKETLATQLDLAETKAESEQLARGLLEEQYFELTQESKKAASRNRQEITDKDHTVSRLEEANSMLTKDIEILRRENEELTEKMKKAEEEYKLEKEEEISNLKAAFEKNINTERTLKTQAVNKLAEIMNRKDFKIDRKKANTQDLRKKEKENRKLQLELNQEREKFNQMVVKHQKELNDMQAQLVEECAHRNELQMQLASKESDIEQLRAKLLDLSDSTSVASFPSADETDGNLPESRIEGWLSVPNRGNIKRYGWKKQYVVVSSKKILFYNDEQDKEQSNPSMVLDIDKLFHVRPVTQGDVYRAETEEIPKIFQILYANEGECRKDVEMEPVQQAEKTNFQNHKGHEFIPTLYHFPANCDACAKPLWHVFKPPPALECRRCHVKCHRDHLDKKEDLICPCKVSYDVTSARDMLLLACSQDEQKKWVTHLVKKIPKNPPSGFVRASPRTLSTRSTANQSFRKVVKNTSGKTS
# Sequence of MAPK13 (human) (O15264 whole entry, looked up): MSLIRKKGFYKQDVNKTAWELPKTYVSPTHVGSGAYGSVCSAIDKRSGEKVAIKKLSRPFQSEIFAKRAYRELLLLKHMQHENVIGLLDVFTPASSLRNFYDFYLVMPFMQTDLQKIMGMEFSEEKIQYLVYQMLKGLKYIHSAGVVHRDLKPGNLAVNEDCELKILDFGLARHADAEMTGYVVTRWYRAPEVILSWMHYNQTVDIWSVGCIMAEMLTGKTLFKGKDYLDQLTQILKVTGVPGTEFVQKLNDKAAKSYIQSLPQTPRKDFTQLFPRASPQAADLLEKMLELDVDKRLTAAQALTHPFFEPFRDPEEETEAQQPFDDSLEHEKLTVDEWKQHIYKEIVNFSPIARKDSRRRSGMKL
# Sequence of EPHA2 (human) (P29317 whole entry, looked up): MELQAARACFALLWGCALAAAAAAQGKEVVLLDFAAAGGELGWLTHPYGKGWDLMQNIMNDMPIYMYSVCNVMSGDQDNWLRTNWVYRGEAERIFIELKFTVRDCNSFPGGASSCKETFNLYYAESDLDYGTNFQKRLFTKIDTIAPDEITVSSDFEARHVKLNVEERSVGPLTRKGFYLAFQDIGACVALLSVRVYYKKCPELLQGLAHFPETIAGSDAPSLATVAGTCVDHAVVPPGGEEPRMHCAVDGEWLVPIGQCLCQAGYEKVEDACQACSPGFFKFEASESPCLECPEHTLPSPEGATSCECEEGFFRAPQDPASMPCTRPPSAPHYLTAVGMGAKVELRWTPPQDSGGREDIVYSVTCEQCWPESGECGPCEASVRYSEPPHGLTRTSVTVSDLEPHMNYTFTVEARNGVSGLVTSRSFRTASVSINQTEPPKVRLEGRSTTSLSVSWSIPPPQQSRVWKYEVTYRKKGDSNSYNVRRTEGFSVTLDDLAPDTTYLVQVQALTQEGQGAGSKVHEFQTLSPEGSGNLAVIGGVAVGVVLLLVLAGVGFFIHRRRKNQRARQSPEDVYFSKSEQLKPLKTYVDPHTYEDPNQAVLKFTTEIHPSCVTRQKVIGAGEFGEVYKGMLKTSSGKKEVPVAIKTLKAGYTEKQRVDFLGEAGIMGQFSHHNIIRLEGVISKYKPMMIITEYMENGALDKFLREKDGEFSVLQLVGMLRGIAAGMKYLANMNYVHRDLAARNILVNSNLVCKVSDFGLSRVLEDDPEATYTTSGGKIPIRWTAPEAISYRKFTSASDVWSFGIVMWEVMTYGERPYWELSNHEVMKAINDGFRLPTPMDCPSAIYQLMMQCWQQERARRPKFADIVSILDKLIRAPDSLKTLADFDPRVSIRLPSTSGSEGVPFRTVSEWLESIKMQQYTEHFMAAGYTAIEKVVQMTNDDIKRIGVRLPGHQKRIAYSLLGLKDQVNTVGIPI
# Sequence of AKT3 (human) (Q9Y243 whole entry, looked up): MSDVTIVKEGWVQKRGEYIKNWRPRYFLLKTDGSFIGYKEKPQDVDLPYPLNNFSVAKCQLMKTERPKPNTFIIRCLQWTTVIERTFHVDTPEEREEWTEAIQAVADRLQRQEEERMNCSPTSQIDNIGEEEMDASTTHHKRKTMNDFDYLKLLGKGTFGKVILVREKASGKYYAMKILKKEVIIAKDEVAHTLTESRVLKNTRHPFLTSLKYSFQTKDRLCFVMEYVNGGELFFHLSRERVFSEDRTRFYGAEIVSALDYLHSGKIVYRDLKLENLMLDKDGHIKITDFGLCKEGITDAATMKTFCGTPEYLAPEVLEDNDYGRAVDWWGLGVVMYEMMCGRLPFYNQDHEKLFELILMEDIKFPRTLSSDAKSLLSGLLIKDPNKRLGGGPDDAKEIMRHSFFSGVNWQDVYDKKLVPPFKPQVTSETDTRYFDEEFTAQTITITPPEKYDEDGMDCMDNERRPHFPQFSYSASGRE
# Sequence of PAK4 (human) (O96013 whole entry, looked up): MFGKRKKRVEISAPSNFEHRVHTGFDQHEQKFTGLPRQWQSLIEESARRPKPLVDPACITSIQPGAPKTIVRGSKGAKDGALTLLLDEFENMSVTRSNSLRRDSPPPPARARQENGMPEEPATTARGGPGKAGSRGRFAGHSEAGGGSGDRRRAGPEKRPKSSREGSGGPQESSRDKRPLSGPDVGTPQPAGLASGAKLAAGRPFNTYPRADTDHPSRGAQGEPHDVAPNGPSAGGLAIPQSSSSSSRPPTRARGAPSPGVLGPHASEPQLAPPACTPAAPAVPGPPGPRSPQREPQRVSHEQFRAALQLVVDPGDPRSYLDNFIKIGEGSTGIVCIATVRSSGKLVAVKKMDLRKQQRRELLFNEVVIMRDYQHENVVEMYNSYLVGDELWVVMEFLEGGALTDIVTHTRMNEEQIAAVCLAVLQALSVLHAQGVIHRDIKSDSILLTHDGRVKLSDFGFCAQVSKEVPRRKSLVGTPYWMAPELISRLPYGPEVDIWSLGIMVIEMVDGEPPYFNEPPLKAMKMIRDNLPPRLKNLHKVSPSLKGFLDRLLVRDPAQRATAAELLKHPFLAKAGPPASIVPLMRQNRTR
# Sequence of CDK9 CCNT1 (human) (O60563 whole entry, looked up): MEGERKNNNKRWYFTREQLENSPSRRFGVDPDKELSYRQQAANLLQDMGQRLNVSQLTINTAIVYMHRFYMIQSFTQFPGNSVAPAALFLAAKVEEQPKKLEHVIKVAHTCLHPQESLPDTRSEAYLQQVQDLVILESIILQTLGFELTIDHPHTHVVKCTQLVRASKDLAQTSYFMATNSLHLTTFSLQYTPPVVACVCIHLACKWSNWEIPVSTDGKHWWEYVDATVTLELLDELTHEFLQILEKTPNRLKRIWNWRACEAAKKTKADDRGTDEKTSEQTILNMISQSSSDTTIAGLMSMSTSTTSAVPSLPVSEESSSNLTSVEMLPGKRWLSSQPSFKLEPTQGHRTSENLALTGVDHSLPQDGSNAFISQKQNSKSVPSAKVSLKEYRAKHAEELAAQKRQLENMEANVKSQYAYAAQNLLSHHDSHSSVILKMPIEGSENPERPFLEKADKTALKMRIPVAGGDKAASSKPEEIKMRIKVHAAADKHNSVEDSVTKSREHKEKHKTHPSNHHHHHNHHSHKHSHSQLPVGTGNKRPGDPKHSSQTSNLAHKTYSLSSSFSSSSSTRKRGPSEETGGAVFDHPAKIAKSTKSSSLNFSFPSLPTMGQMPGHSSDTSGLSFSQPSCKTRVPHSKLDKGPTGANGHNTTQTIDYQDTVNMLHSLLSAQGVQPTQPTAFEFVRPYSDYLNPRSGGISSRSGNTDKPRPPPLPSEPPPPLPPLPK
# Sequence of CDK9 CCNT1 (human) (P50750 whole entry, looked up): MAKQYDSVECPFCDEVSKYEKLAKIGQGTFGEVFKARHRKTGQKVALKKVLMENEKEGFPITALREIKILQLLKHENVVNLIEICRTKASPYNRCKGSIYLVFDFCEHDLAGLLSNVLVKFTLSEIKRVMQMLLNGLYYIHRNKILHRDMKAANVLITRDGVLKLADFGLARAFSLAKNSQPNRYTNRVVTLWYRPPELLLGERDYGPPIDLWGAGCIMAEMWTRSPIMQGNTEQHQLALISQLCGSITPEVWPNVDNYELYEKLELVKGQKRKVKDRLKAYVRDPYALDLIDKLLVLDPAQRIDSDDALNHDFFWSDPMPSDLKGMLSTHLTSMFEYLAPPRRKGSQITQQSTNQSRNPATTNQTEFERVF
structure (smiles),measurement,setting,value
COc1cccc(-c2cc(=O)c3ccccc3o2)c1N,residual activity,MKNK2 (human),108%
same,residual activity,INSRR (human),98.4%
same,residual activity,MAPKAPK5 (human),122%
same,residual activity,GRK6 (human),90.7%
same,residual activity,CHUK (human),104%
same,residual activity,CAMK1 (human),98.5%
same,residual activity,PAK4 (human),88.1%
same,residual activity,MET (human),112%
same,residual activity,MAPK13 (human),99.8%
same,residual activity,PAK3 (human),90.7%
same,residual activity,RPS6KB2 (human),84.5%
same,residual activity,CDK5 CDK5R1 p25 (human),87.5%
same,residual activity,VRK1 (human),89.4%
same,residual activity,SRPK1 (human),93.4%
same,residual activity,PAK1 (human),97.5%
same,residual activity,ROCK2 (human),91.5%
same,residual activity,FER (human),97.6%
same,residual activity,CLK3 (human),95.4%
same,residual activity,CDC42BPA (human),98.5%
same,residual activity,PAK2 (human),104%
same,residual activity,WNK3 (human),96.3%
same,residual activity,MAPK9 (human),89.8%
same,residual activity,EPHA2 (human),105%
same,residual activity,MAP3K3 (human),83%
same,residual activity,PRKX (human),101%
same,residual activity,PRKCB2 (human),102%
same,residual activity,PDGFRB (human),99.4%
same,residual activity,SYK (human),97.2%
same,residual activity,AKT3 (human),101%
same,residual activity,PRKG2 (human),101%
same,residual activity,CDK9 CCNT1 (human),93.6%
same,residual activity,CSNK1G1 (human),83.5%
same,residual activity,FGR (human),94.8%
same,residual activity,EPHA5 (human),97.9%
same,residual activity,ADRBK2 (human),94.7%
same,residual activity,PRKCI (human),97.3%
same,residual activity,ALK (human),84.1%
same,residual activity,IKBKB (human),92.5%
same,residual activity,TSSK2 (human),79.7%
same,residual activity,MAPK8 (human),95.3%
same,residual activity,RPS6KA4 KD2 (human),103%
same,residual activity,ROCK1 (human),95.6%
COc1cc2ncnc(Nc3ccc(O)c(Br)c3)c2cc1OC,residual activity,MKNK2 (human),18%
same,residual activity,INSRR (human),96.8%
same,residual activity,MAPKAPK5 (human),98.7%
same,residual activity,GRK6 (human),104%
same,residual activity,CHUK (human),107%
same,residual activity,CAMK1 (human),103%
same,residual activity,PAK4 (human),95.7%
same,residual activity,MET (human),96.4%
same,residual activity,MAPK13 (human),102%
same,residual activity,PAK3 (human),94.2%
same,residual activity,RPS6KB2 (human),102%
same,residual activity,CDK5 CDK5R1 p25 (human),98.4%
same,residual activity,VRK1 (human),86.4%
same,residual activity,SRPK1 (human),91.8%
same,residual activity,PAK1 (human),94.1%
same,residual activity,ROCK2 (human),89.9%
same,residual activity,FER (human),85.2%
same,residual activity,CLK3 (human),54.1%
same,residual activity,CDC42BPA (human),96.9%
same,residual activity,PAK2 (human),90.6%
same,residual activity,WNK3 (human),95.7%
same,residual activity,MAPK9 (human),88.4%
same,residual activity,EPHA2 (human),80.6%
same,residual activity,MAP3K3 (human),82%
same,residual activity,PRKX (human),89.2%
same,residual activity,PRKCB2 (human),98.7%
same,residual activity,PDGFRB (human),93.7%
same,residual activity,SYK (human),86.7%
same,residual activity,AKT3 (human),101%
same,residual activity,PRKG2 (human),84.1%
same,residual activity,CDK9 CCNT1 (human),91.4%
same,residual activity,CSNK1G1 (human),92.4%
same,residual activity,FGR (human),57.8%
same,residual activity,EPHA5 (human),72.3%
same,residual activity,ADRBK2 (human),103%
same,residual activity,PRKCI (human),94%
same,residual activity,ALK (human),12.5%
same,residual activity,IKBKB (human),88.1%
same,residual activity,TSSK2 (human),98.7%
same,residual activity,MAPK8 (human),101%
same,residual activity,RPS6KA4 KD2 (human),93.8%
same,residual activity,ROCK1 (human),96.1%
